# Data: ChEMBL document CHEMBL3739380, “Discovery of benzothiazoles as antimycobacterial agents: Synthesis, structure-activity relationships and binding studies with Mycobacterium tuberculosis decaprenylphosphoryl-β-D-ribose 2'-oxidase” (Bioorg Med Chem, 2015)
# pIC50: −log10 of the molar value.
# What was measured:
# [1] = test system: Salmonella typhimurium; assay: Genotoxicity in Salmonella typhimurium TA100 at 1600 ug/plate by Ames test in absence of S9 fraction; format: toxicity, organism-based; conditions: salmonella enterica subsp. enterica serovar typhimurium
# [2] = test system: Salmonella typhimurium; assay: Genotoxicity in Salmonella typhimurium TA100 at 160 ug/plate by Ames test in presence of S9 fraction; format: toxicity, organism-based; conditions: salmonella enterica subsp. enterica serovar typhimurium
# [3] = test system: Mycobacterium tuberculosis; assay: Antimycobacterial activity against Mycobacterium tuberculosis H37Rv ATCC 27294 after 5 days by microdilution method; format: functional; conditions: H37Rv ATCC 27294, 120 h
# [4] = test system: Salmonella typhimurium; assay: Genotoxicity in Salmonella typhimurium TA98 at 500 ug/plate by Ames test in presence of S9 fraction; format: toxicity, organism-based; conditions: salmonella enterica subsp. enterica serovar typhimurium
# [5] = test system: Salmonella typhimurium; assay: Genotoxicity in Salmonella typhimurium TA98 at 500 ug/plate by Ames test in absence of S9 fraction; format: toxicity, organism-based; conditions: salmonella enterica subsp. enterica serovar typhimurium
# [6] = Inhibition of Mycobacterium tuberculosis DprE1 using farnesyl-phosphoryl-beta-D-ribofuranose as substrate preincubated for 30 mins before substrate addition by peroxidase coupled assay
# [7] = molecular target: T1, Cytochrome P450 1A2 (Homo sapiens, UniProt P05177); assay: Inhibition of human recombinant CYP1A2 by fluorescence assay; format: ADME
# T1 sequence (P05177 whole entry): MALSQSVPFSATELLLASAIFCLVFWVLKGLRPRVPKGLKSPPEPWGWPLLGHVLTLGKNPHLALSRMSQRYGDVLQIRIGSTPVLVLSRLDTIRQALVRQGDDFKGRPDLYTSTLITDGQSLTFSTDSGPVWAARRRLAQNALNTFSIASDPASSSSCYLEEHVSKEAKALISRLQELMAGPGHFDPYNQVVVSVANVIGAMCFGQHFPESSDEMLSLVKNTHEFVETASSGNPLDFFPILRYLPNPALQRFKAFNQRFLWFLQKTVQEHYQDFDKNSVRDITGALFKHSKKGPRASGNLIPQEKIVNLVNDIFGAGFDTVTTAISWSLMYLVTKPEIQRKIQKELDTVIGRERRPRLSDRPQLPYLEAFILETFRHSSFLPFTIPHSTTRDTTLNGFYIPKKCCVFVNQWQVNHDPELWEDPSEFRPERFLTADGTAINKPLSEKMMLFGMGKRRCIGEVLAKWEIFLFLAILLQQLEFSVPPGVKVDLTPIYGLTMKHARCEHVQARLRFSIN
# [8] = test system: Salmonella typhimurium; assay: Genotoxicity in Salmonella typhimurium TA100 at 50 ug/plate by Ames test in absence of S9 fraction; format: toxicity, organism-based; conditions: salmonella enterica subsp. enterica serovar typhimurium
# [9] = molecular target: Cytochrome P450 2D6 (Homo sapiens, UniProt P10635); assay: Inhibition of human recombinant CYP2D6 by fluorescence assay; format: ADME
# [10] = molecular target: Cytochrome P450 2C19 (Homo sapiens, UniProt P33261); assay: Inhibition of human recombinant CYP2C19 by fluorescence assay; format: ADME
# [11] = test system: Salmonella typhimurium; assay: Genotoxicity in Salmonella typhimurium TA100 at 16 ug/plate by Ames test in presence of S9 fraction; format: toxicity, organism-based; conditions: salmonella enterica subsp. enterica serovar typhimurium
# [12] = molecular target: Cytochrome P450 2C9 (Homo sapiens, UniProt P11712); assay: Inhibition of human recombinant CYP2C9 by fluorescence assay; format: ADME
# [13] = Aqueous solubility of the compound; format: physicochemical; conditions: buffer
# [14] = test system: A549; assay: Cytotoxicity against human A549 cells after 72 hrs by fluorescence assay; format: cell-based; conditions: A549, 72 h
# [15] = Intrinsic clearance in mouse liver microsomes; format: ADME; conditions: read-out: CLH
# [16] = molecular target: Cytochrome P450 3A4 (Homo sapiens, UniProt P08684); assay: Inhibition of human recombinant CYP3A4 by fluorescence assay; format: ADME
# [17] = Fraction unbound in mouse plasma protein; format: ADME, cell-free
# [18] = test system: Salmonella typhimurium; assay: Genotoxicity in Salmonella typhimurium TA98 at 50 ug/plate by Ames test in absence of S9 fraction; format: toxicity, organism-based; conditions: salmonella enterica subsp. enterica serovar typhimurium
# [19] = test system: Salmonella typhimurium; assay: Genotoxicity in Salmonella typhimurium TA98 at 50 ug/plate by Ames test in presence of S9 fraction; format: toxicity, organism-based; conditions: salmonella enterica subsp. enterica serovar typhimurium
# [20] = test system: Mycobacterium tuberculosis; assay: Antimycobacterial activity against Mycobacterium tuberculosis H37Rv ATCC 27294 infected in BMDM assessed as log reduction CFU after 7 days by killing kinetic assay; format: functional
# [21] = test system: Mycobacterium tuberculosis; assay: Antimycobacterial activity against Mycobacterium tuberculosis H37Rv ATCC 27294 infected in human THP1 cells assessed as log reduction CFU after 7 days by killing kinetic assay; format: functional, THP-1
# [22] = test system: Salmonella typhimurium; assay: Genotoxicity in Salmonella typhimurium TA100 at 5000 ug/plate by Ames test in absence of S9 fraction; format: toxicity, organism-based; conditions: salmonella enterica subsp. enterica serovar typhimurium
# [23] = test system: Salmonella typhimurium; assay: Genotoxicity in Salmonella typhimurium TA98 at 5000 ug/plate by Ames test in presence of S9 fraction; format: toxicity, organism-based; conditions: salmonella enterica subsp. enterica serovar typhimurium
# [24] = test system: Salmonella typhimurium; assay: Genotoxicity in Salmonella typhimurium TA100 at 5000 ug/plate by Ames test in presence of S9 fraction; format: toxicity, organism-based; conditions: salmonella enterica subsp. enterica serovar typhimurium
# [25] = test system: Mycobacterium tuberculosis; assay: Antimycobacterial activity against Mycobacterium tuberculosis H37Rv ATCC 27294 after 2 to 3 weeks by turbidity assay; format: functional
# [26] = test system: Salmonella typhimurium; assay: Genotoxicity in Salmonella typhimurium TA98 at 5000 ug/plate by Ames test in absence of S9 fraction; format: toxicity, organism-based; conditions: salmonella enterica subsp. enterica serovar typhimurium
# [27] = Clearance in iv dosed mouse; format: ADME, organism-based; conditions: in vivo
# [28] = Volume of distribution at steady state in mouse; format: ADME, organism-based; conditions: in vivo, read-out: Vdss
# [29] = AUC100 in po dosed mouse; format: ADME, organism-based; conditions: in vivo
# [30] = test system: Mycobacterium tuberculosis; assay: Antimycobacterial activity against Mycobacterium tuberculosis H37Rv ATCC 27294 assessed as log reduction CFU after 7 days by killing kinetic assay; format: functional
# Chain of Cytochrome P450 3A4 (P08684 whole entry): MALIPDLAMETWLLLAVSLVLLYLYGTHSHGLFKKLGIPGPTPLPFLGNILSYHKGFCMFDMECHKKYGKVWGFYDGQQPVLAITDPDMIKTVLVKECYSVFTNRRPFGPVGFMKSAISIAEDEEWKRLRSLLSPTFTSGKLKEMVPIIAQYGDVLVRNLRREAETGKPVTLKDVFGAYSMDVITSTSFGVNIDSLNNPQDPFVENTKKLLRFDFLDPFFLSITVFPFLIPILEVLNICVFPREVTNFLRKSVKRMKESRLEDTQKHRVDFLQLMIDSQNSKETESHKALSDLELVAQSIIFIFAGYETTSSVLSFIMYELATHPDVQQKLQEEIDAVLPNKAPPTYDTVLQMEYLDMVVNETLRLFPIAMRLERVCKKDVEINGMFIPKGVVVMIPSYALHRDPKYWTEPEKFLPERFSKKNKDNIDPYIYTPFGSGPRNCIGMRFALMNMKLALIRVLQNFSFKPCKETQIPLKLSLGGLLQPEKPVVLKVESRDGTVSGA
# Chain of Cytochrome P450 2D6 (P10635 whole entry): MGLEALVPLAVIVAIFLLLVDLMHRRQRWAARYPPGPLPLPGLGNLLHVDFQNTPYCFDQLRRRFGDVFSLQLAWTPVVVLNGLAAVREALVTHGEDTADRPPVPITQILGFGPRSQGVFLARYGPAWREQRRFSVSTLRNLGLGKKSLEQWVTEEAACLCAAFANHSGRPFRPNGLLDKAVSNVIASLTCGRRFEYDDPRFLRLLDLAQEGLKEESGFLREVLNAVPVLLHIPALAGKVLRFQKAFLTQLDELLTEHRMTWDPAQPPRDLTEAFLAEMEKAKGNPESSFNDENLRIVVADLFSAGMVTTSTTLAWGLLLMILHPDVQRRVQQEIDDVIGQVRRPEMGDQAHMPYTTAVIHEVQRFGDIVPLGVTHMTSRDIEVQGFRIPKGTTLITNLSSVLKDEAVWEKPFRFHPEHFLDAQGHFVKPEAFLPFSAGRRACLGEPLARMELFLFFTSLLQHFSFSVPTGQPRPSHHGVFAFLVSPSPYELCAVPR
# Chain of Cytochrome P450 2C19 (P33261 whole entry): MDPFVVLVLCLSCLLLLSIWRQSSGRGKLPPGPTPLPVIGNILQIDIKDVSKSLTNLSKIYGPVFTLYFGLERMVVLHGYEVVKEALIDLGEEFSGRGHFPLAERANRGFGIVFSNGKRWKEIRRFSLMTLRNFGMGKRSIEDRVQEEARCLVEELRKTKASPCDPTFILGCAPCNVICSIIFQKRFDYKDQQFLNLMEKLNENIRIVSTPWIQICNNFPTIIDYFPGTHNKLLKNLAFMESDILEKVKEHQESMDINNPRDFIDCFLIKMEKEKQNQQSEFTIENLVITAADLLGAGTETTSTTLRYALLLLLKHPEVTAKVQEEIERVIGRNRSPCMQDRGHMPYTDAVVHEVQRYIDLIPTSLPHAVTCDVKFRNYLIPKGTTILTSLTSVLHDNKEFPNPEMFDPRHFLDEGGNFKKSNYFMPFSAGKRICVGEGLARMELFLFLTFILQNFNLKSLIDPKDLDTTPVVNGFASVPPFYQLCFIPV
# Chain of Cytochrome P450 2C9 (P11712 whole entry): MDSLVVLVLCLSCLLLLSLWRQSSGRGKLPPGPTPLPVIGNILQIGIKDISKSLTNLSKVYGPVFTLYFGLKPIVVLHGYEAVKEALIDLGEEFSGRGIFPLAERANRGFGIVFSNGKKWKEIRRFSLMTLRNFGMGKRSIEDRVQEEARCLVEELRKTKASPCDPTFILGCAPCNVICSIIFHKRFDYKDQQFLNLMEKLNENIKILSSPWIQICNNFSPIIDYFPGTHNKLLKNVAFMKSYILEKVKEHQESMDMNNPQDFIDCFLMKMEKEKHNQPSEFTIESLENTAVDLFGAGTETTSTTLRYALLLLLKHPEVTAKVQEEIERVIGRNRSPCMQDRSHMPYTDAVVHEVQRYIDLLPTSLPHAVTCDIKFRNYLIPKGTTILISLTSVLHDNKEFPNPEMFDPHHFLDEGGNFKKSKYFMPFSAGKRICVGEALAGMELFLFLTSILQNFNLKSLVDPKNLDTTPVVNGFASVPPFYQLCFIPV
compound,measurement,setting,value
O=[N+]([O-])c1cc(C(F)(F)F)cc2nc(C3=NCCO3)sc12,Activity,[1],Toxic
same,Activity,[2],Toxic
same,MIC,[3],1 µg/mL
same,Activity,[4],Toxic
same,Activity,[5],Toxic
O=C(O)c1cc(C(F)(F)F)cc2nc(C(=O)N3CCCCC3)sc12,pIC50,[6],< 4.00
same,MIC,[3],> 32 µg/mL
COCCN1CCN(C(=O)c2nc3cc(C(F)(F)F)cc([N+](=O)[O-])c3s2)CC1,pIC50,[7],4.75
same,Activity,[8],Toxic
same,pIC50,[9],5.28
same,pIC50,[10],4.25
same,pIC50,[6],6.61
same,Activity,[11],Toxic
same,IC50,[12],Not Active
same,MIC,[3],0.21 µg/mL
same,solubility,[13],331 µM
same,pIC50,[14],4.05
same,microsomal CLint,[15],25 µL/min/mg
same,pIC50,[16],4.71
same,Activity,[4],Toxic
same,Activity,[5],Toxic
same,fraction unbound,[17],0.061
COCCN1CCN(C(=O)c2sc3c([N+](=O)[O-])cc(C(F)(F)F)cc3[n+]2[O-])CC1,Activity,[18],Toxic
same,Activity,[8],Toxic
same,Activity,[19],Toxic
same,pIC50,[6],7.57
same,Activity,[11],Toxic
same,MIC,[3],0.03 µg/mL
C[C@H](NC(=O)c1sc2c([N+](=O)[O-])cc(C(F)(F)F)cc2[n+]1[O-])C(=O)C1CCCC1,Activity,[20],1 log10CFU/ml
same,pIC50,[6],7.22
same,MIC,[3],0.02 µg/mL
same,Activity,[21],1 log10CFU/ml
Cc1c(C(F)(F)F)cc2nc(C(=O)N[C@@H](CO)C(=O)N3CCCC3)sc2c1[N+](=O)[O-],pIC50,[6],5.92
same,MIC,[3],1 µg/mL
Cc1c(C(F)(F)F)cc2nc(C(=O)N3CCCCC3)sc2c1[N+](=O)[O-],Activity,[22],Non-toxic
same,Activity,[23],Non-toxic
same,Activity,[24],Non-toxic
same,MIC,[25],0.5 µg/mL
same,pIC50,[6],5.66
same,MIC,[3],0.25 µg/mL
same,Activity,[26],Non-toxic
COCCN1CCN(C(=O)c2nc3cc(C(F)(F)F)c(C)c([N+](=O)[O-])c3s2)CC1,Activity,[22],Non-toxic
same,pIC50,[7],5.02
same,Activity,[23],Non-toxic
same,Activity,[24],Non-toxic
same,clearance,[27],146 mL/min/kg
same,Vd,[28],24.5 L/kg
same,pIC50,[9],4.23
same,MIC,[25],2 µg/mL
same,pIC50,[10],4.19
same,pIC50,[6],5.77
same,IC50,[12],Not Active
same,MIC,[3],2 µg/mL
same,AUC,[29],570 ng·h/mL
same,solubility,[13],73 µM
same,Activity,[26],Non-toxic
same,pIC50,[14],4.00
same,microsomal CLint,[15],< 4 µL/min/mg
same,pIC50,[16],4.02
same,fraction unbound,[17],0.043
O=C(c1nc2cc(C(F)(F)F)cc(B(O)O)c2s1)N1CCCCC1,MIC,[3],> 32 µg/mL
O=C(c1nc2cc(C(F)(F)F)cc([N+](=O)[O-])c2s1)N1CCCCC1,Activity,[8],Toxic
same,pIC50,[6],6.67
same,Activity,[11],Toxic
same,MIC,[3],0.7 µg/mL
same,Activity,[4],Toxic
same,Activity,[5],Toxic
N#Cc1cc([N+](=O)[O-])c2sc(C(=O)N3CCCCC3)nc2c1,pIC50,[6],5.74
same,MIC,[3],1 µg/mL
O=C(NCc1ccccn1)c1sc2c([N+](=O)[O-])cc(C(F)(F)F)cc2[n+]1[O-],MIC,[25],0.01 µg/mL
same,pIC50,[6],7.59
same,MIC,[3],0.02 µg/mL
same,Activity,[30],2.5 log10CFU/ml
O=[N+]([O-])c1cc(C(F)(F)F)cc2nc(CN3CCOCC3)sc12,pIC50,[6],5.28
same,MIC,[3],> 32 µg/mL
O=C(NCc1ccccn1)c1nc2cc(C(F)(F)F)cc([N+](=O)[O-])c2s1,Activity,[20],1 log10CFU/ml
same,MIC,[25],0.12 µg/mL
same,pIC50,[6],6.34
same,MIC,[3],0.6 µg/mL
same,Activity,[30],2.5 log10CFU/ml
same,Activity,[21],1 log10CFU/ml
